Measurements published in patent publication US20260200946A1, “KRAS(G12V) INHIBITORS” (Ranok Therapeutics (Hangzhou) Co. Ltd., priority 2022, published 2026).
pEC50, pIC50: −log10 of the molar value.

Columns and labels:
[1] = biological target: T1, KRAS(G12V)/SOS1 (Homo sapiens, UniProt P01116, G12V); test: KRAS(G12V)/SOS1 homogeneous time-resolved fluorescence (HTRF) assay; format: binding; conditions: absence of GTP; 4° C., 3 hours; read-out: HTRF of KRASG12V-SOS1
T1 construct: purchased Cisbio 63ADK000CB18PEH
T1 sequence (P01116 1-188 isoform P01116-2 G12V): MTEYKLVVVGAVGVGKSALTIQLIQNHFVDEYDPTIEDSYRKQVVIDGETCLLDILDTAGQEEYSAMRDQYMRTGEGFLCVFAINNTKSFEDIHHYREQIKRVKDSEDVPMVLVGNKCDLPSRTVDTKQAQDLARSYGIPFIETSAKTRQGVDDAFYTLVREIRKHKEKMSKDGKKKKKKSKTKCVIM
Experimental: Binding of test compounds to KRAS(G12V) target protein, which in turn blocks KRAS(G12V) interaction with the SOS1 protein, was measured in the absences of GTP by homogeneous time-resolved fluorescence using the KRAS-G12V/SOS1 Binding Assay Kit (Cisbio, 63ADK000CB18PEH), following the manufacturer's instructions, except as noted. 3-fold serial dilutions of each test compound were prepared ranging from 20 µM to 1.02 nM. The test compound was mixed and incubated with reaction components, incubated in a sealed plate at 4° C. for 3 hours and fluorescence was measured using a PerkinElmer Envision plate reader. The KRAS(G12V)-SOS1 IC50 values (the concentration of 50% of the maximal inhibition) were calculated using GraphPad Prism 8.0 software.

[2] = system: SW620 cells; test: Cancer cell line proliferation (CellTiter-Glo), SW620; format: cell-based; conditions: Homo sapiens, SW-620, SW620 colorectal adenocarcinoma, homozygous G12V, 72 hr
Experimental: Cell lines were cultured essentially according to ATCC recommendations. SW620 and NCIH727 cells were plated in 384-well tissue culture plates at 1,000 cells/well and incubated at 37° C./5% CO2 for 72 hr in 40 μl of media. […] Each cell line was then treated with test compounds at various concentrations with a final concentration of 0.5% DMSO/well, and then incubated at 37° C./5% CO2 for 72 hr. 40 μl of CellTiter-Glo® Reagent (Promega Corporation, Madison, WI) was added to each well and processed according manufacturer's protocol. Results were analyzed and IC50 values were calculated in GraphPad 8.0 software.

[3] = system: NCIH727 cells; test: Cancer cell line proliferation (CellTiter-Glo), NCI-H727; format: cell-based; conditions: Homo sapiens, 72 h, NCIH727 lung carcinoid, heterozygous G12V
Method in brief: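 NCI-H727 cells (1,000/well) were grown 72 h at 37 °C/5% CO2, then exposed to compound at various concentrations (0.5% DMSO final) for a further 72 h. Viability was read by CellTiter-Glo luminescence, and IC50 values were calculated from the dose-response.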

SMILES | pIC50 [1] | pEC50 [2] | pEC50 [3]
C#Cc1c(F)ccc2cc(O)cc(-c3ncc4c(N5CC6CCC(C5)N6C(=O)CCC#N)nc(OCC5(CN6CCC(F)CC6)CC5)nc4c3F)c12 [Example 3] | > 7.00 | 6.00 to 7.00 | < 6.00
C#Cc1c(F)ccc2cc(O)cc(-c3ncc4c(N5CC6CCC(C5)N6C(=O)CC(C)(C)C)nc(OCC5(CN6CCC(F)CC6)CC5)nc4c3F)c12 [Example 5] | 6.00 to 7.00 | < 6.00 | < 6.00
C#Cc1c(F)ccc2cc(O)cc(-c3ncc4c(N5CC6CCC(C5)N6C(=O)NC(C)(C)C)nc(OCC5(CN6CCC(F)CC6)CC5)nc4c3F)c12 [Example 6] | > 7.00 | 6.00 to 7.00 | 6.00 to 7.00
C#Cc1c(F)ccc2cc(O)cc(-c3ncc4c(N5CC6CCC(C5)N6C(=O)NC(C)C)nc(OCC5(CN6CCC(F)CC6)CC5)nc4c3F)c12 [Example 7] | > 7.00 | < 6.00 | < 6.00
C#Cc1c(F)ccc2cc(O)cc(-c3ncc4c(N5CC6CCC(C5)N6C(=O)N(C)C)nc(OCC5(CN6CCC(F)CC6)CC5)nc4c3F)c12 [Example 8] | > 7.00 | < 6.00 | < 6.00
C#Cc1c(F)ccc2cc(O)cc(-c3ncc4c(N5CC6CCC(C5)N6C(=O)OCC)nc(OCC5(CN6CCC(F)CC6)CC5)nc4c3F)c12 [Example 11] | 6.00 to 7.00 | 6.00 to 7.00 | 6.00 to 7.00
C#Cc1c(F)ccc2cc(O)cc(-c3ncc4c(N5CC6CCC(C5)N6S(=O)(=O)CC(C)C)nc(OCC5(CN6CCC(F)CC6)CC5)nc4c3F)c12 [Example 14] | 6.00 to 7.00 | 6.00 to 7.00 | < 6.00
C#Cc1c(F)ccc2cc(O)cc(-c3ncc4c(N5CC6CCC(C5)N6C(=O)OCC(C)C)nc(OCC5(CN6CCC(F)CC6)CC5)nc4c3F)c12 [Example 16] | 6.00 to 7.00 | < 6.00 | < 6.00
C#Cc1c(F)ccc2cc(O)cc(-c3ncc4c(N5CC6CCC(C5)N6C(=O)NC(=O)C(C)(C)C)nc(OCC5(CN6CCC(F)CC6)CC5)nc4c3F)c12 [Example 17] | 6.00 to 7.00 | < 6.00 | < 6.00
C#Cc1c(F)ccc2cc(O)cc(-c3ncc4c(N5CC6CCC(C5)N6C(=O)N5CCC5)nc(OCC5(CN6CCC(F)CC6)CC5)nc4c3F)c12 [Example 18] | 6.00 to 7.00 | < 6.00 | < 6.00
C#Cc1c(F)ccc2cc(O)cc(-c3nc(OC)c4c(N5CC6CCC(C5)N6C(=O)NC(C)(C)C)nc(OCC5(CN6CCC(F)CC6)CC5)nc4c3F)c12 [Example 21] | > 7.00 | 6.00 to 7.00 | 6.00 to 7.00
C#Cc1c(F)ccc2cc(O)cc(-c3ncc4c(N5CC6CCC(C5)N6C(=O)C5(C(F)(F)F)CC5)nc(OCC5(CN6CCC(F)CC6)CC5)nc4c3F)c12 [Example 22] | 6.00 to 7.00 | < 6.00 | < 6.00
C#Cc1c(F)ccc2cc(O)cc(-c3nc(OC)c4c(N5CC6CCC(C5)N6C(=O)NC#N)nc(OCC5(CN6CCC(F)CC6)CC5)nc4c3F)c12 [Example 23] | 6.00 to 7.00 | < 6.00 | < 6.00
C#Cc1c(F)ccc2cc(O)cc(-c3ncc4c(N5CC6CCC(C5)N6C(=O)N5CC(OC)C5)nc(OCC5(CN6CCC(F)CC6)CC5)nc4c3F)c12 [Example 24] | 6.00 to 7.00 | < 6.00 | < 6.00
C#Cc1c(F)ccc2cc(O)cc(-c3ncc4c(N5CC6CCC(C5)N6S(=O)(=O)NC(C)C)nc(OCC5(CN6CCC(F)CC6)CC5)nc4c3F)c12 [Example 25] | 6.00 to 7.00 | < 6.00 | < 6.00
C#Cc1c(F)ccc2cc(O)cc(-c3nc(OC)c4c(N5CC6CCC(C5)N6C(=O)NCC(F)(F)F)nc(OCC5(CN6CCC(F)CC6)CC5)nc4c3F)c12 [Example 26] | > 7.00 | < 6.00 | 6.00 to 7.00
C#Cc1c(F)ccc2cc(O)cc(-c3ncc4c(N5CC6CCC(C5)N6C(=O)CC5CC5)nc(OCC5(CN6CCC(F)CC6)CC5)nc4c3F)c12 [Example 27] | 6.00 to 7.00 | < 6.00 | < 6.00
C#Cc1c(F)ccc2cc(O)cc(-c3ncc4c(N5CC6CCC(C5)N6C(=O)c5nnn[nH]5)nc(OCC5(CN6CCC(F)CC6)CC5)nc4c3F)c12 [Example 28] | 6.00 to 7.00 | < 6.00 | < 6.00
C#Cc1c(F)ccc2cc(O)cc(-c3ncc4c(N5CC6CCC(C5)N6C(=O)NC#N)nc(OCC5(CN6CCC(F)CC6)CC5)nc4c3F)c12 [Example 29] | 6.00 to 7.00 | < 6.00 | < 6.00

SMILES | pIC50 [1] | pEC50 [2] | pEC50 [3]
C#Cc1c(F)ccc2cc(O)cc(-c3ncc4c(N5CC6CCC(C5)N6C(=O)c5c[nH]cn5)nc(OCC5(CN6CCC(F)CC6)CC5)nc4c3F)c12 [Example 30] | 6.00 to 7.00 | < 6.00 | < 6.00
C#Cc1c(F)ccc2cc(O)cc(-c3ncc4c(N5CC6CCC(C5)N6CC)nc(OCC5(CN6CCC(F)CC6)CC5)nc4c3F)c12 [Example 31] | 6.00 to 7.00 | < 6.00 | < 6.00
C#Cc1c(F)ccc2cc(O)cc(-c3ncc4c(N5CC6CCC(C5)N6C(=O)NC(C)C(F)(F)F)nc(OCC5(CN6CCC(F)CC6)CC5)nc4c3F)c12 (stereo not drawn) [Example 32] | 6.00 to 7.00 | < 6.00 | < 6.00
C#Cc1c(F)ccc2cc(O)cc(-c3ncc4c(N5CC6CCC(C5)N6S(=O)(=O)CC#N)nc(OCC5(CN6CCC(F)CC6)CC5)nc4c3F)c12 [Example 33] | 6.00 to 7.00 | < 6.00 | < 6.00
C#Cc1c(F)ccc2cc(O)cc(-c3nc(OC)c4c(N5CC6CCC(C5)N6C(=O)NC5(C#N)CC5)nc(OCC5(CN6CCC(F)CC6)CC5)nc4c3F)c12 [Example 34] | 6.00 to 7.00 | 6.00 to 7.00 | 6.00 to 7.00
C#Cc1c(F)ccc2cc(O)cc(-c3ncc4c(N5CC6CCC(C5)N6C(=O)NC5(C#N)CC5)nc(OCC5(CN6CCC(F)CC6)CC5)nc4c3F)c12 [Example 35] | 6.00 to 7.00 | 6.00 to 7.00 | 6.00 to 7.00
C#Cc1c(F)ccc2cc(O)cc(-c3ncc4c(N5CC6CCC(C5)N6C(=O)[C@H]5CCN(C(=O)OC)C5)nc(OCC5(CN6CCC(F)CC6)CC5)nc4c3F)c12 [Example 36] | 6.00 to 7.00 | < 6.00 | < 6.00
C#Cc1c(F)ccc2cc(O)cc(-c3nc(OC)c4c(N5CC6CCC(C5)N6C(=O)NCC#N)nc(OCC5(CN6CCC(F)CC6)CC5)nc4c3F)c12 [Example 37] | 6.00 to 7.00 | 6.00 to 7.00 | 6.00 to 7.00
C#Cc1c(F)ccc2cc(O)cc(-c3nc(OC)c4c(N5CC6CCC(C5)N6C(=O)NC(C)C#N)nc(OCC5(CN6CCC(F)CC6)CC5)nc4c3F)c12 (stereo not drawn) [Example 38] | > 7.00 | 6.00 to 7.00 | 6.00 to 7.00
C#Cc1c(F)ccc2cc(O)cc(-c3ncc4c(N5CC6CCC(C5)N6C(=O)CC(F)(F)F)nc(OCC5(CN6CCC(F)CC6)CC5)nc4c3F)c12 [Example 39] | 6.00 to 7.00 | < 6.00 | < 6.00
C#Cc1c(F)ccc2cc(O)cc(-c3ncc4c(N5CC6CCC(C5)N6C(=O)OC(C)(C)C)nc(OCC5(CN6CCC(F)CC6)CC5)nc4c3F)c12 [Example 40] | 6.00 to 7.00 | < 6.00 | < 6.00
C#Cc1c(F)ccc2cc(O)cc(-c3ncc4c(N5CC6CCC(C5)N6C(C)=O)nc(OCC5(CN6CCC(F)CC6)CC5)nc4c3F)c12 [Example 41] | 6.00 to 7.00 | < 6.00 | < 6.00
C#Cc1c(F)ccc2cc(O)cc(-c3ncc4c(N5CC6CCC(C5)N6C(=O)OC(C)C)nc(OCC5(CN6CCC(F)CC6)CC5)nc4c3F)c12 [Example 42] | 6.00 to 7.00 | < 6.00 | < 6.00
C#Cc1c(F)ccc2cc(O)cc(-c3ncc4c(N5CC6CCC(C5)N6C(=O)C(C)(C)C)nc(OCC5(CN6CCC(F)CC6)CC5)nc4c3F)c12 [Example 43] | 6.00 to 7.00 | < 6.00 | < 6.00
C#Cc1c(F)ccc2cc(O)cc(-c3nc(OC)c4c(N5CC6CCC(C5)N6C(=O)C5CC5(F)F)nc(OCC5(CN6CCC(F)CC6)CC5)nc4c3F)c12 (stereo not drawn) [Example 44] | > 7.00 | 6.00 to 7.00 | 6.00 to 7.00
C#Cc1c(F)ccc2cc(O)cc(-c3nc(OC)c4c(N5CC6CCC(C5)N6C(=O)C5(C(F)(F)F)CC5)nc(OCC5(CN6CCC(F)CC6)CC5)nc4c3F)c12 [Example 45] | > 7.00 | < 6.00 | < 6.00
C#Cc1c(F)ccc2cc(O)cc(-c3nc(OC)c4c(N5CC6CCC(C5)N6C(=O)NC5CC5)nc(OCC5(CN6CCC(F)CC6)CC5)nc4c3F)c12 [Example 46] | > 7.00 | 6.00 to 7.00 | 6.00 to 7.00
C#CCCC(=O)N1C2CCC1CN(c1nc(OCC3(CN4CCC(F)CC4)CC3)nc3c(F)c(-c4cc(O)cc5ccc(F)c(C#C)c45)ncc13)C2 [Example 47] | > 7.00 | < 6.00 | < 6.00
